System: FL5-12/Bcl2 cells
Assay: Complementation studies in FL5-12 cells stably expressing Bcl2
Format: cell-based, murine
Settings: shifted from complete to IL3 deficient media
Procedure: The relative contribution of the novel miR-19 targets was assessed. The pro-apoptotic BIM protein opposes BCL2 and is an important regulator of lymphocyte survival (Bouillet, et al., 1999). To assess whether miR-19 has Bim-independent effects, complementation studies were conducted with FL5-12 cells engineered to stably express Bcl2 (FL5-12/Bcl2 cells). […] Similarly, expression of miR-19 was associated with continued proliferation in the presence of metformin-activated AMP kinase or expression of Pten or Pp2r5e (FIG. 16).

miR-19: miRNA of the 17˜92 cluster, UGUGCAAAUCCAUGCAAAACUGA (SEQ ID NO: 2); seed family in Table 3 (expressed or natural sequence; listed as Homo sapiens)
enrichment of GFP-expressing FL5-12/Bcl2 cells: continued enrichment in the presence of Bcl2
